Results reported in PubChem BioAssay (NCI).
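Here, GI50 denotes the concentration required for 50% inhibition of growth. At the TGI there is no net growth.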

Tests used:
Test in all cases: NCI anticancer screen, dose series, 384-well format
NCI-H522 lung = system: NCI-H522 lung
NCI/ADR-RES ovarian = system: NCI/ADR-RES ovarian
HOP-62 NSCLC = system: HOP-62 NSCLC
SK-MEL-5 melanoma = system: SK-MEL-5 melanoma
A549 NSCLC = system: A549 NSCLC
HS 578T breast = system: HS 578T breast
TK-10 renal = system: TK-10 renal
MDA-MB-231 breast = system: MDA-MB-231 breast
SK-MEL-28 melanoma = system: SK-MEL-28 melanoma
ACHN renal = system: ACHN renal
UO-31 renal = system: UO-31 renal
OVCAR-3 ovarian = system: OVCAR-3 ovarian
PC-3 prostate = system: PC-3 prostate
NCI-H226 lung = system: NCI-H226 lung
UACC-257 melanoma = system: UACC-257 melanoma
786-0 renal = system: 786-0 renal
HL-60(TB) leukemia = system: HL-60(TB) leukemia
HCT-15 colon = system: HCT-15 colon
UACC-62 melanoma = system: UACC-62 melanoma
HCC-2998 colon = system: HCC-2998 colon
NCI-H460 NSCLC = system: NCI-H460 NSCLC
MCF7 breast = system: MCF7 breast
DU-145 prostate = system: DU-145 prostate
MALME-3M melanoma = system: MALME-3M melanoma
U251 glioblastoma = system: U251 glioblastoma
K-562 leukemia = system: K-562 leukemia
OVCAR-8 ovarian = system: OVCAR-8 ovarian
MOLT-4 leukemia = system: MOLT-4 leukemia
CAKI-1 renal = system: CAKI-1 renal
EKVX NSCLC = system: EKVX NSCLC
SF-295 CNS = system: SF-295 CNS
HT29 colon = system: HT29 colon
BT-549 breast = system: BT-549 breast
OVCAR-4 ovarian = system: OVCAR-4 ovarian
KM12 colon = system: KM12 colon
CCRF-CEM leukemia = system: CCRF-CEM leukemia
SF-539 CNS = system: SF-539 CNS
IGROV1 ovarian = system: IGROV1 ovarian
RXF 393 renal = system: RXF 393 renal
OVCAR-5 ovarian = system: OVCAR-5 ovarian
SF-268 CNS = system: SF-268 CNS
HOP-92 NSCLC = system: HOP-92 NSCLC
T-47D breast = system: T-47D breast
M14 melanoma = system: M14 melanoma
NCI-H322M lung = system: NCI-H322M lung
SNB-19 CNS = system: SNB-19 CNS
SK-OV-3 ovarian = system: SK-OV-3 ovarian
A498 renal = system: A498 renal
MDA-MB-435 melanoma = system: MDA-MB-435 melanoma
COLO 205 colon = system: COLO 205 colon
SN12C renal = system: SN12C renal
HCT-116 colon = system: HCT-116 colon
SW-620 colon = system: SW-620 colon
SNB-75 CNS = system: SNB-75 CNS
LOX IMVI melanoma = system: LOX IMVI melanoma
RPMI-8226 leukemia = system: RPMI-8226 leukemia
NCI-H23 lung = system: NCI-H23 lung

**Q.** Which GI50 (NCI-H522 lung) does the source give for `CNC(=O)c1ccccc1Nc1cc(Nc2ccc(N3CCOCC3)cc2OC)ncc1C(F)(F)F` here?
**A.** 0.877 µM

**Q.** What about the TGI (NCI-H522 lung) of the same compound?
**A.** 20.4 µM

**Q.** And the GI50 (NCI/ADR-RES ovarian)?
**A.** 1.52 µM

**Q.** What about the TGI (NCI/ADR-RES ovarian) of the same compound?
**A.** 4.64 µM

**Q.** And the GI50 (HOP-62 NSCLC)?
**A.** 2.62 µM

**Q.** And the TGI (HOP-62 NSCLC)?
**A.** 51.3 µM

**Q.** What about the GI50 (SK-MEL-5 melanoma) of the same compound?
**A.** 0.767 µM

**Q.** And the TGI (SK-MEL-5 melanoma)?
**A.** 18 µM

**Q.** And the GI50 (A549 NSCLC)?
**A.** 0.371 µM

**Q.** What about the TGI (A549 NSCLC) of the same compound?
**A.** 13 µM

**Q.** What about the GI50 (HS 578T breast) of the same compound?
**A.** 2.78 µM

**Q.** What about the TGI (HS 578T breast) of the same compound?
**A.** 10.1 µM

**Q.** What about the GI50 (TK-10 renal) of the same compound?
**A.** 7.3 µM

**Q.** What about the TGI (TK-10 renal) of the same compound?
**A.** 32 µM

**Q.** And the GI50 (MDA-MB-231 breast)?
**A.** 2.76 µM

**Q.** And the TGI (MDA-MB-231 breast)?
**A.** 49.2 µM

**Q.** What about the GI50 (SK-MEL-28 melanoma) of the same compound?
**A.** 2 µM

**Q.** What about the TGI (SK-MEL-28 melanoma) of the same compound?
**A.** 16.7 µM

**Q.** And the GI50 (ACHN renal)?
**A.** 5.62 µM

**Q.** What about the TGI (ACHN renal) of the same compound?
**A.** 69.7 µM

**Q.** And the GI50 (UO-31 renal)?
**A.** 2.9 µM

**Q.** What about the TGI (UO-31 renal) of the same compound?
**A.** 16.9 µM

**Q.** What about the GI50 (OVCAR-3 ovarian) of the same compound?
**A.** 4.45 µM

**Q.** And the TGI (OVCAR-3 ovarian)?
**A.** 37.9 µM

**Q.** And the GI50 (PC-3 prostate)?
**A.** 15.9 µM

**Q.** And the TGI (PC-3 prostate)?
**A.** > 100 µM

**Q.** What about the GI50 (NCI-H226 lung) of the same compound?
**A.** 0.876 µM

**Q.** What about the TGI (NCI-H226 lung) of the same compound?
**A.** > 100 µM

**Q.** What about the GI50 (UACC-257 melanoma) of the same compound?
**A.** 0.397 µM

**Q.** And the TGI (UACC-257 melanoma)?
**A.** 23.3 µM

**Q.** What about the GI50 ([…]-0 renal) of the same compound?
**A.** 2.75 µM

**Q.** What about the TGI (786-0 renal) of the same compound?
**A.** 19.8 µM

**Q.** And the GI50 (HL-60(TB) leukemia)?
**A.** 0.375 µM

**Q.** And the TGI (HL-60(TB) leukemia)?
**A.** 1.43 µM

**Q.** And the GI50 (HCT-15 colon)?
**A.** 2.88 µM

**Q.** And the TGI (HCT-15 colon)?
**A.** 34.2 µM

**Q.** What about the GI50 (UACC-62 melanoma) of the same compound?
**A.** 0.354 µM

**Q.** And the TGI (UACC-62 melanoma)?
**A.** 14.4 µM

**Q.** What about the GI50 (HCC-2998 colon) of the same compound?
**A.** 0.654 µM

**Q.** And the TGI (HCC-2998 colon)?
**A.** 15.8 µM

**Q.** What about the GI50 (NCI-H460 NSCLC) of the same compound?
**A.** 0.316 µM

**Q.** And the TGI (NCI-H460 NSCLC)?
**A.** 10.6 µM

**Q.** What about the GI50 (MCF7 breast) of the same compound?
**A.** 0.447 µM

**Q.** And the TGI (MCF7 breast)?
**A.** 18.5 µM

**Q.** And the GI50 (DU-145 prostate)?
**A.** 1.97 µM

**Q.** What about the TGI (DU-145 prostate) of the same compound?
**A.** 24.3 µM

**Q.** What about the GI50 (MALME-3M melanoma) of the same compound?
**A.** 0.303 µM

**Q.** What about the TGI (MALME-3M melanoma) of the same compound?
**A.** 15.1 µM

**Q.** And the GI50 (U251 glioblastoma)?
**A.** 4.4 µM

**Q.** And the TGI (U251 glioblastoma)?
**A.** 48 µM

**Q.** What about the GI50 (K-562 leukemia) of the same compound?
**A.** 2.69 µM

**Q.** What about the TGI (K-562 leukemia) of the same compound?
**A.** > 100 µM

**Q.** What about the GI50 (OVCAR-8 ovarian) of the same compound?
**A.** 4.08 µM

**Q.** And the TGI (OVCAR-8 ovarian)?
**A.** 19.8 µM

**Q.** What about the GI50 (MOLT-4 leukemia) of the same compound?
**A.** 0.969 µM

**Q.** And the TGI (MOLT-4 leukemia)?
**A.** 10.5 µM

**Q.** And the GI50 (CAKI-1 renal)?
**A.** 6.33 µM

**Q.** And the TGI (CAKI-1 renal)?
**A.** 21 µM

**Q.** What about the GI50 (EKVX NSCLC) of the same compound?
**A.** 0.653 µM

**Q.** And the TGI (EKVX NSCLC)?
**A.** 11.8 µM

**Q.** And the GI50 (SF-295 CNS)?
**A.** 2.12 µM

**Q.** What about the TGI (SF-295 CNS) of the same compound?
**A.** 38.7 µM

**Q.** What about the GI50 (HT29 colon) of the same compound?
**A.** 0.416 µM

**Q.** And the TGI (HT29 colon)?
**A.** 14.1 µM

**Q.** And the GI50 (BT-549 breast)?
**A.** 2.82 µM

**Q.** What about the TGI (BT-549 breast) of the same compound?
**A.** 9.86 µM

**Q.** And the GI50 (OVCAR-4 ovarian)?
**A.** 16.1 µM

**Q.** And the TGI (OVCAR-4 ovarian)?
**A.** > 100 µM

**Q.** And the GI50 (KM12 colon)?
**A.** 0.523 µM

**Q.** And the TGI (KM12 colon)?
**A.** 8.06 µM

**Q.** What about the GI50 (CCRF-CEM leukemia) of the same compound?
**A.** 0.722 µM

**Q.** And the TGI (CCRF-CEM leukemia)?
**A.** 11.5 µM

**Q.** And the GI50 (SF-539 CNS)?
**A.** 1.7 µM

**Q.** What about the TGI (SF-539 CNS) of the same compound?
**A.** 16.8 µM

**Q.** And the GI50 (IGROV1 ovarian)?
**A.** 0.229 µM

**Q.** What about the TGI (IGROV1 ovarian) of the same compound?
**A.** 12.4 µM

**Q.** And the GI50 (RXF 393 renal)?
**A.** 2.82 µM

**Q.** What about the TGI (RXF 393 renal) of the same compound?
**A.** 14 µM

**Q.** What about the GI50 (OVCAR-5 ovarian) of the same compound?
**A.** 0.66 µM

**Q.** What about the TGI (OVCAR-5 ovarian) of the same compound?
**A.** 27.5 µM

**Q.** And the GI50 (SF-268 CNS)?
**A.** 0.143 µM

**Q.** What about the TGI (SF-268 CNS) of the same compound?
**A.** 1.67 µM

**Q.** What about the GI50 (HOP-92 NSCLC) of the same compound?
**A.** 1.02 µM

**Q.** What about the TGI (HOP-92 NSCLC) of the same compound?
**A.** 10.2 µM

**Q.** What about the GI50 (T-47D breast) of the same compound?
**A.** 9.99 µM

**Q.** And the TGI (T-47D breast)?
**A.** 23.3 µM

**Q.** And the GI50 (M14 melanoma)?
**A.** 0.233 µM

**Q.** And the TGI (M14 melanoma)?
**A.** 11.1 µM

**Q.** And the GI50 (NCI-H322M lung)?
**A.** 5.28 µM

**Q.** And the TGI (NCI-H322M lung)?
**A.** 46.2 µM

**Q.** And the GI50 (SNB-19 CNS)?
**A.** 10.9 µM

**Q.** And the TGI (SNB-19 CNS)?
**A.** > 100 µM

**Q.** And the GI50 (SK-OV-3 ovarian)?
**A.** 5.44 µM

**Q.** What about the TGI (SK-OV-3 ovarian) of the same compound?
**A.** 41.9 µM

**Q.** And the GI50 (A498 renal)?
**A.** 11 µM

**Q.** What about the TGI (A498 renal) of the same compound?
**A.** 28.3 µM

**Q.** What about the GI50 (MDA-MB-435 melanoma) of the same compound?
**A.** 0.752 µM

**Q.** What about the TGI (MDA-MB-435 melanoma) of the same compound?
**A.** > 100 µM

**Q.** And the GI50 (COLO 205 colon)?
**A.** 0.309 µM

**Q.** What about the TGI (COLO 205 colon) of the same compound?
**A.** 1.85 µM

**Q.** What about the GI50 (SN12C renal) of the same compound?
**A.** 3.31 µM

**Q.** What about the TGI (SN12C renal) of the same compound?
**A.** 27.1 µM

**Q.** What about the GI50 (HCT-116 colon) of the same compound?
**A.** 0.632 µM

**Q.** And the TGI (HCT-116 colon)?
**A.** 13.2 µM

**Q.** And the GI50 (SW-620 colon)?
**A.** 0.658 µM

**Q.** And the TGI (SW-620 colon)?
**A.** 12.6 µM

**Q.** And the GI50 (SNB-75 CNS)?
**A.** 4.25 µM

**Q.** What about the TGI (SNB-75 CNS) of the same compound?
**A.** 21.4 µM

**Q.** What about the GI50 (LOX IMVI melanoma) of the same compound?
**A.** 1.23 µM

**Q.** What about the TGI (LOX IMVI melanoma) of the same compound?
**A.** 12.1 µM

**Q.** And the GI50 (RPMI-8226 leukemia)?
**A.** 0.35 µM

**Q.** What about the TGI (RPMI-8226 leukemia) of the same compound?
**A.** 3.3 µM

**Q.** And the GI50 (NCI-H23 lung)?
**A.** 0.277 µM

**Q.** And the TGI (NCI-H23 lung)?
**A.** 9.47 µM
